Reference: US20220152214A1, “CANCER TREATMENT WITH ROR1 ANTIBODY IMMUNOCONJUGATES” (VelosBio Inc., priority 2019, published 2022)
Where a SMILES comes first, the peptide text is derived from it. [ ]: non-standard residue; d: D form. The star is where a group is joined. Dolaproine = CO[C@@H]([C@@H]1CCCN1)[C@@H](C)C(=O)O; Dil = CC[C@H](C)[C@H](NC)[C@@H](CC(=O)O)OC; X1 = C[C@@H](N*)[C@@H](O)c1ccccc1; NMeV = CN[C@H](C(=O)O)C(C)C

Test: Plasma pharmacokinetics of total antibody, total ADC-A and MMAE after ADC-A IV infusion
Format: in vivo, human
Parameters: Cmax/Dose / AUClast/Dose: unit not given beside the values
Details: plasma analyte = label
Method: The following describes a protocol for evaluating the safety, pharmacokinetics, pharmacodynamics, immunogenicity, and efficacy of a ROR1 immunoconjugate (ADC-A) across a range of dose levels when administered to subjects with previously treated relapsed or refractory CLL/SLL, MCL, FL, MZL, DLBCL, RTL, BL, LPL/WM, T cell NHL, ALL, or AML. ADC-A is administered intravenously (IV) in repeated 3-week cycles with a drug infusion on Day 1 of each cycle (Q1/3W [Schedule 1]); in repeated 3-week cycles with drug infusions on Days 1 and 8 of each cycle (Q2/3W [Schedule 2]); or in repeated 4-week cycles with drug infusions on Days 1, 8, and 15 of each cycle (Q3/4W [Schedule 3]) over a planned infusion time of ˜30 minutes. Infusion times may be extended as necessary to accommodate individual subject tolerance of treatment.

[1] = after ADC-A 0.5 mg/kg IV Q1/3W (n = 1)
[2] = after ADC-A 1.0 mg/kg IV Q1/3W (n = 3)
[3] = after ADC-A 1.5 mg/kg IV Q1/3W (n = 3)
[4] = after ADC-A 2.25 mg/kg IV Q1/3W (n = 9)
[5] = after ADC-A 2.5 mg/kg IV Q1/3W (n = 4)

CC[C@H](C)[C@@H]([C@@H](CC(=O)N1CCC[C@H]1[C@H](OC)[C@@H](C)C(=O)N[C@H](C)[C@@H](O)c1ccccc1)OC)N(C)C(=O)[C@@H](NC(=O)[C@@H](NC)C(C)C)C(C)C [MMAE, monomethyl auristatin E] (H-[NMeV]V[Dil][Dolaproine]-X1)
Increases in Cmax and AUC with dose (ADC-A 0.5 to 2.5 mg/kg IV Q1/3W): somewhat less than dose-proportional
AUClast [1]: 271 ng·h/mL
AUClast/Dose [1]: 0.5420
Cmax [1]: 1.15 ng/mL
Cmax/Dose [1]: 0.0023
Tmax [1]: 48 h
AUClast [2]: 467 ng·h/mL
AUClast/Dose [2]: 0.4673
Cmax [2]: 2.66 ng/mL
Cmax/Dose [2]: 0.0027
Tmax [2]: 48 h
AUClast [3]: 390 ng·h/mL
AUClast/Dose [3]: 0.2600
Cmax [3]: 1.66 ng/mL
Cmax/Dose [3]: 0.0011
Tmax [3]: 88.7 h
AUClast [4]: 698 ng·h/mL
AUClast/Dose [4]: 0.3102
Cmax [4]: 4.43 ng/mL
Cmax/Dose [4]: 0.0020
Tmax [4]: 75.1 h
AUClast [5]: 994.8 ng·h/mL
AUClast/Dose [5]: 0.3979
Cmax [5]: 6.7 ng/mL
Cmax/Dose [5]: 0.0027
Tmax [5]: 78.5 h
